ChEMBL document CHEMBL3864164, “II. Discovery of a novel series of CXCR3 antagonists with a beta amino acid core” (Bioorg Med Chem Lett, 2016)
In brackets after ≈: the same amount, converted by molar mass.

How the values were obtained:
[1] = Solubility of the compound at pH 1.1 to 7.4; assay type: physicochemical; conditions: buffer
[2] = Drug degradation in solid phase after few months; assay type: physicochemical; conditions: read-out: Drug degradation
[3] = Absolute oral bioavailability in Balb/c mouse at 10 mg/kg; assay type: ADME, organism-based; conditions: in vivo

Compound	solubility [1] [µM]	degraded [2] [%]	bioavailability [3] [%]
CCCN(Cc1ccc(OCCn2c(=O)ccn(C)c2=O)c(OC)c1)C(CC(=O)O)c1ccc2c(c1)CCO2 (configuration not stated)	3000 (≈ 1610 µg/mL)	5 to 7	–
COc1cc(CN(CC2CCCC2)[C@@H](CC(=O)O)c2ccc(Cl)c(F)c2)ccc1OCCN1C(=O)CCC1=O	3000 (≈ 1680 µg/mL)	5 to 7	–
Cc1cc(CN(C2CCC2)C(CC(=O)O)c2ccc(Cl)cc2)ccc1OCCn1c(=O)ccn(C)c1=O (configuration not stated)	3000 (≈ 1580 µg/mL)	5 to 7	–
Cl.O=C(O)C[C@@H](c1ccc(Cl)c(Cl)c1)N(Cc1ccc(OCCN2C(=O)CCC2=O)c(F)c1)CC1CC1	3000	5 to 7	64
Cc1cc(CN(CC2CC2)C(CC(=O)O)c2ccc(Cl)cc2)ccc1OCCn1c(=O)ccn(C)c1=O (configuration not stated)	3000 (≈ 1580 µg/mL)	5 to 7	–
CCCN(Cc1ccc(OCCN2C(=O)CCC2=O)c(OC)c1)C(CC)c1ccc(Cl)c(C(=O)O)c1 (configuration not stated)	3000 (≈ 1550 µg/mL)	5 to 7	–
Cc1cc(CN(CC2CCCC2)C(CC(=O)O)c2ccc(Cl)cc2)ccc1OCCN1C(=O)CCC1=O (configuration not stated)	3000 (≈ 1580 µg/mL)	5 to 7	–
CCCN(Cc1ccc(OCCN2C(=O)CCC2=O)c(C)c1)[C@@H](CC(=O)O)c1ccc(Cl)cc1	3000 (≈ 1460 µg/mL)	5 to 7	–
Cc1cc(CN(CC(C)C)C(CC(=O)O)c2ccc(Cl)cc2Cl)ccc1OCCN1C(=O)CCC1=O (configuration not stated)	3000 (≈ 1610 µg/mL)	5 to 7	–
Cc1cc(CN(CC(C)C)[C@@H](CC(=O)O)c2ccc(Cl)c(F)c2)ccc1OCCN1C(=O)CCC1=O.Cl	3000	5 to 7	–
COc1cc(CN(CC(C)C)[C@@H](CC(=O)O)c2ccc(Cl)cc2)ccc1OCCn1c(=O)ccn(C)c1=O	3000 (≈ 1630 µg/mL)	5 to 7	–
Cc1cc(CN(C2CCC2)C(CC(=O)O)c2ccc(Cl)cc2)ccc1OCCN1C(=O)CCC1=O (configuration not stated)	3000 (≈ 1500 µg/mL)	5 to 7	–
COc1cc(CN(CC(C)C)C(CC(=O)O)c2ccc(Cl)c(Cl)c2)ccc1OCCN1C(=O)CCC1=O (configuration not stated)	3000 (≈ 1650 µg/mL)	5 to 7	–
CCCN(Cc1ccc(OCCN2C(=O)CCC2=O)c(C)c1)C1c2ccc(Cl)cc2CC1C(=O)O (configuration not stated)	3000 (≈ 1500 µg/mL)	5 to 7	–
Cl.O=C(O)C[C@@H](c1ccc(Cl)c(F)c1)N(Cc1ccc(OCCN2C(=O)CCC2=O)c(Cl)c1)CC1CC1	3000	5 to 7	35
CCN(Cc1ccc(OCCn2c(=O)ccn(C)c2=O)c(OC)c1)C(CC(=O)O)c1ccc(Cl)cc1 (configuration not stated)	3000 (≈ 1550 µg/mL)	5 to 7	–
Cc1cc(CN(CCC(F)(F)F)C(CC(=O)O)c2ccc(Cl)cc2)ccc1OCCN1C(=O)CCC1=O (configuration not stated)	3000 (≈ 1620 µg/mL)	5 to 7	–
Cc1cc(CN(CC2CC2)[C@@H](CC(=O)O)c2ccc(Cl)cc2)ccc1OCCN1C(=O)CCC1=O	3000 (≈ 1500 µg/mL)	5 to 7	–
COc1cc(CN(CC2CC2)C(CC(=O)O)c2ccc(Cl)cc2)ccc1OCCn1c(=O)ccn(C)c1=O (configuration not stated)	3000 (≈ 1630 µg/mL)	5 to 7	–

Compound	solubility [1] [µM]	degraded [2] [%]	bioavailability [3] [%]
COc1cc(CN(CC2CC2)[C@@H](CC(=O)O)c2ccc(Cl)c(F)c2)ccc1OCCN1C(=O)CCC1=O.Cl	3000	5 to 7	5.4
Cc1cc(CN(CC(C)C)C(CC(=O)O)c2ccc(Cl)cc2)ccc1OCCN1C(=O)CCC1=O (configuration not stated)	3000 (≈ 1500 µg/mL)	5 to 7	–
CCCN(Cc1ccc(OCCN2C(=O)CCC2=O)c(C)c1)C(c1ccc(Cl)cc1)C1(C(=O)O)CC1 (configuration not stated)	3000 (≈ 1540 µg/mL)	5 to 7	–
COc1cc(CN(CC(C)C)C(CC(=O)O)c2ccc3c(c2)CCO3)ccc1OCCN1C(=O)CCC1=O (configuration not stated)	3000 (≈ 1570 µg/mL)	5 to 7	–
Cc1cc(CN(CC(C)C)C(CC(=O)O)c2ccc(Cl)c(F)c2)ccc1OCCN1C(=O)CCC1=O (configuration not stated)	3000 (≈ 1560 µg/mL)	5 to 7	–
C[C@@H](c1ccc(Cl)cc1)N(Cc1ccc(OCCN2C(=O)CCC2=O)c(C(=O)O)c1)CC1CCCC1	3000 (≈ 1540 µg/mL)	5 to 7	–
Cc1cc(CN(C)C(CC(=O)O)c2ccc(Cl)cc2)ccc1OCCn1c(=O)ccn(C)c1=O (configuration not stated)	3000 (≈ 1460 µg/mL)	5 to 7	–
COc1cc(CN(CC(C)C)C(CC(=O)O)c2ccc3c(c2)CCO3)ccc1OCCn1c(=O)ccn(C)c1=O (configuration not stated)	3000 (≈ 1650 µg/mL)	5 to 7	–
CCCN(Cc1ccc(OCCn2c(=O)ccn(C)c2=O)c(C)c1)C(CC(=O)O)c1ccc(Cl)cc1 (configuration not stated)	3000 (≈ 1540 µg/mL)	5 to 7	–
Cc1cc(CN(CC2CCCC2)[C@@H](CC(=O)O)c2ccc(Cl)cc2)ccc1OCCN1C(=O)CCC1=O	3000 (≈ 1580 µg/mL)	5 to 7	14
CCCN(Cc1ccc(OCCN2C(=O)CCC2=O)c(C)c1)C(CC(=O)O)c1ccc(Cl)cc1 (configuration not stated)	3000 (≈ 1460 µg/mL)	5 to 7	–
COc1cc(CN(CC(C)C)C(CC(=O)O)c2ccc(Cl)c(F)c2)ccc1OCCN1C(=O)CCC1=O (configuration not stated)	3000 (≈ 1610 µg/mL)	5 to 7	–
CCCCN(Cc1ccc(OCCN2C(=O)CCC2=O)c(C)c1)C(CC(=O)O)c1ccc(Cl)cc1 (configuration not stated)	3000 (≈ 1500 µg/mL)	5 to 7	–
Cc1cc(CN(CC2CCCC2)[C@@H](CC(=O)O)c2ccc(Cl)c(F)c2)ccc1OCCN1C(=O)CCC1=O.Cl	3000	5 to 7	–
CCCN(Cc1ccc(OCCN2C(=O)CCC2=O)c(OC)c1)C(C(=O)O)c1ccc(Cl)cc1 (configuration not stated)	3000 (≈ 1470 µg/mL)	5 to 7	–
COc1cc(CN(CC(C)C)C(CC(=O)O)c2ccc(Cl)cc2)ccc1OCCn1c(=O)ccn(C)c1=O (configuration not stated)	3000 (≈ 1630 µg/mL)	5 to 7	–
COc1cc(CN(CC(C)C)[C@H](CC(=O)O)c2ccc(Cl)cc2)ccc1OCCn1c(=O)ccn(C)c1=O	3000 (≈ 1630 µg/mL)	5 to 7	–
CCc1cc(CN(CC2CCCC2)[C@@H](CC(=O)O)c2ccc(Cl)cc2)ccc1OCCN1C(=O)CCC1=O	3000 (≈ 1620 µg/mL)	5 to 7	–
Cc1cc(CN(CC2CCCCC2)C(CC(=O)O)c2ccc(Cl)cc2)ccc1OCCN1C(=O)CCC1=O (configuration not stated)	3000 (≈ 1620 µg/mL)	5 to 7	–

Compound	solubility [1] [µM]	degraded [2] [%]	bioavailability [3] [%]
COc1cc(CN(CC(C)C)C(CC(=O)O)c2ccc(Cl)cc2)ccc1OCCN1C(=O)CCC1=O (configuration not stated)	3000 (≈ 1550 µg/mL)	5 to 7	–
Cl.O=C(O)C[C@@H](c1ccc(Cl)c(F)c1)N(Cc1ccc(OCCN2C(=O)CCC2=O)c(F)c1)CC1CC1	3000	5 to 7	70
Cc1cc(CN(CC(C)C)C(CC(=O)O)c2ccc3c(c2)CCO3)ccc1OCCN1C(=O)CCC1=O (configuration not stated)	3000 (≈ 1530 µg/mL)	5 to 7	–
CCCN(Cc1ccc(OCCn2c(=O)ccn(C)c2=O)c(OC)c1)C(CC(=O)O)c1ccc(Cl)cc1 (configuration not stated)	3000 (≈ 1590 µg/mL)	5 to 7	–
COc1cc(CN(C2CCC2)C(CC(=O)O)c2ccc(Cl)cc2)ccc1OCCn1c(=O)ccn(C)c1=O (configuration not stated)	3000 (≈ 1630 µg/mL)	5 to 7	–
Cc1cc(CN(CC(C)C)C(CC(=O)O)c2ccc(Cl)c(Cl)c2)ccc1OCCN1C(=O)CCC1=O (configuration not stated)	3000 (≈ 1610 µg/mL)	5 to 7	–
CCCCN(Cc1ccc(OCCn2c(=O)ccn(C)c2=O)c(OC)c1)C(CC(=O)O)c1ccc2c(c1)CCO2 (configuration not stated)	3000 (≈ 1650 µg/mL)	5 to 7	–
COc1cc(CN(CC2CC2)C(CC(=O)O)c2ccc3c(c2)CCO3)ccc1OCCn1c(=O)ccn(C)c1=O (configuration not stated)	3000 (≈ 1650 µg/mL)	5 to 7	–
CCN(Cc1ccc(OCCn2c(=O)ccn(C)c2=O)c(C)c1)C(CC(=O)O)c1ccc(Cl)cc1 (configuration not stated)	3000 (≈ 1500 µg/mL)	5 to 7	–
CCN(Cc1ccc(OCCN2C(=O)CCC2=O)c(C)c1)C(CC(=O)O)c1ccc(Cl)cc1 (configuration not stated)	3000 (≈ 1420 µg/mL)	5 to 7	–
CCCN(Cc1ccc(OCCN2C(=O)CCC2=O)c(C)c1)C(CC(=O)O)c1ccc(Cl)s1.Cl (configuration not stated)	3000	5 to 7	–
CCCCN(Cc1ccc(OCCn2c(=O)ccn(C)c2=O)c(OC)c1)C(CC(=O)O)c1ccc(Cl)cc1 (configuration not stated)	3000 (≈ 1630 µg/mL)	5 to 7	–
CCCN(Cc1ccc(OCCN2C(=O)CCC2=O)c(C)c1)[C@H](CC(=O)O)c1ccc(Cl)cc1	3000 (≈ 1460 µg/mL)	5 to 7	–
Cc1cc(CN(CC2CC2)C(CC(=O)O)c2ccc(Cl)cc2)ccc1OCCN1C(=O)CCC1=O (configuration not stated)	3000 (≈ 1500 µg/mL)	5 to 7	–
Cc1cc(CN(Cc2ccc(F)cc2)C(CC(=O)O)c2ccc(Cl)cc2)ccc1OCCN1C(=O)CCC1=O.Cl (configuration not stated)	3000	5 to 7	–
COc1cc(CN(CC(C)C)C(CC(=O)O)c2ccc(Cl)cc2Cl)ccc1OCCN1C(=O)CCC1=O (configuration not stated)	3000 (≈ 1650 µg/mL)	5 to 7	–
CCCN(Cc1ccc(OCCN2C(=O)CCC2=O)c(OC)c1)C(c1ccc(Cl)cc1)C(C)C(=O)O (configuration not stated)	3000 (≈ 1550 µg/mL)	5 to 7	–
Cc1cc(CN(CC(C)C)[C@@H](CC(=O)O)c2ccc(Cl)cc2)ccc1OCCN1C(=O)CCC1=O	3000 (≈ 1500 µg/mL)	5 to 7	–
